According to paper PMC8286840, “Identifying SARS-CoV-2 antiviral compounds by screening for small molecule inhibitors of Nsp3 papain-like protease” (Biochemical Journal, 2021):
Counter-ions that a name gives are not always drawn. Like-named read-outs stand apart in the source and are kept apart here. Where a SMILES comes first, the peptide text is derived from it. [ ]: non-standard residue; d: D form. The star is where a group is joined. Dolaproine = CO[C@@H]([C@@H]1CCCN1)[C@@H](C)C(=O)O; Dil = CC[C@H](C)[C@H](NC)[C@@H](CC(=O)O)OC; NMe2Val = CC(C)[C@@H](C(=O)*)N(C)C

How the values were obtained:
[1] = molecular target: T1, SARS-CoV-2 PLpro (nsp3 1564–1878) (Severe acute respiratory syndrome coronavirus 2, UniProt P0DTD1); test: biochemical; design: FRET-quenched peptide (Pro3) cleavage by PLpro, 10 min pre-incubation, slope over 20 min, normalised to no-compound control; details: low concentration screen, read-out: % of control remaining
[2] = molecular target: T1, SARS-CoV-2 PLpro (nsp3 1564–1878); test: biochemical; design: FRET-quenched peptide (Pro3) cleavage by PLpro, 10 min pre-incubation, slope over 20 min, normalised to no-compound control; details: high concentration screen, read-out: % of control remaining

Q: What does the source list for `COC(=O)N[C@H](C(=O)N[C@@H](Cc1ccccc1)[C@@H](O)CN(Cc1ccc(-c2ccccn2)cc1)NC(=O)[C@@H](NC(=O)OC)C(C)(C)C)C(C)(C)C` [Atazanavir sulfate]?
A: remaining activity at 1.25 µM ([1]; Well no.=5245): 96.5%; remaining activity at 3.75 µM ([2]; Well no.=5245): 101%

Q: With `COC(=O)N[C@H](C(=O)N[C@@H](Cc1ccccc1)[C@@H](O)CN(Cc1ccc(-c2ccccn2)cc1)NC(=O)[C@@H](NC(=O)OC)C(C)(C)C)C(C)(C)C` [Atazanavir] as the compound, how does the remaining activity at 1.25 µM ([1]; Well no.=1918) read?
A: 97.5%

Q: What about the remaining activity at 3.75 µM ([2]; Well no.=1918) of the same compound?
A: 95.7%

Q: How did the remaining activity at 1.25 µM ([1]; Well no.=2131) turn out when `CC(C)NCC(O)COc1ccc(CC(N)=O)cc1` (centres unmarked) [Atenolol] was run?
A: 103%

Q: And the remaining activity at 1.25 µM ([1]; Well no.=7671)?
A: 97.3%

Q: What about the remaining activity at 3.75 µM ([2]; Well no.=2131) of the same compound?
A: 104%

Q: And the remaining activity at 3.75 µM ([2]; Well no.=7671)?
A: 98.5%

Q: Which results are given for `CN(C)C(=O)Nc1cccc(-c2ccc(N(C)C)cc2)c1` [Atglistatin]?
A: remaining activity at 1.25 µM ([1]; Well no.=5396): 98.8%; remaining activity at 3.75 µM ([2]; Well no.=5396): 81.1%

Q: How did the remaining activity at 1.25 µM ([1]; Well no.=7481) turn out when `CCC1(c2c[nH]cn2)Cc2ccccc2C1` [Atipamezole (hydrochloride)] was run?
A: 102%

Q: And the remaining activity at 3.75 µM ([2]; Well no.=7481)?
A: 98.7%

Q: What does the source list for `CCC1(c2c[nH]cn2)Cc2ccccc2C1` [Atipamezole]?
A: remaining activity at 1.25 µM ([1]; Well no.=6663): 101%; remaining activity at 3.75 µM ([2]; Well no.=6663): 101%

Q: Which remaining activity at 1.25 µM ([1]; Well no.=8096) does the source give for `CC(C)c1c(C(=O)Nc2ccccc2)c(-c2ccccc2)c(-c2ccc(F)cc2)n1CC[C@@H](O)C[C@@H](O)CC(=O)O` [Atorvastatin Calcium] here?
A: 95.7%

Q: What about the remaining activity at 3.75 µM ([2]; Well no.=8096) of the same compound?
A: 98.2%

Q: Which remaining activity at 1.25 µM ([1]; Well no.=1838) does the source give for `O=C1C(O)=C([C@H]2CC[C@H](c3ccc(Cl)cc3)CC2)C(=O)c2ccccc21` [Atovaquone] here?
A: 92.3%

Q: And the remaining activity at 3.75 µM ([2]; Well no.=1838)?
A: 94.9%

Q: Which remaining activity at 1.25 µM ([1]; Well no.=2133) does the source give for `COc1ccc(C[C@@H]2c3cc(OC)c(OC)cc3CC[N@+]2(C)CCC(=O)OCCCCCOC(=O)CC[N@@+]2(C)CCc3cc(OC)c(OC)cc3[C@H]2Cc2ccc(OC)c(OC)c2)cc1OC` [Atracurium besylate] here?
A: 92.8%

Q: And the remaining activity at 3.75 µM ([2]; Well no.=2133)?
A: 98.2%

Q: `CN1[C@@H]2CC[C@H]1C[C@@H](OC(=O)C(CO)c1ccccc1)C2` (some centres unmarked) [Atropine (sulfate monohydrate)] was tested. Which remaining activity at 1.25 µM ([1]; Well no.=7677) did it give?
A: 93.8%

Q: What about the remaining activity at 3.75 µM ([2]; Well no.=7677) of the same compound?
A: 94.5%

Q: For `C[N+]1(C)[C@@H]2CC[C@H]1C[C@@H](OC(=O)C(CO)c1ccccc1)C2` (some centres unmarked) [Atropine methyl bromide], which remaining activity at 1.25 µM ([1]; Well no.=117) is on record?
A: 100%

Q: What about the remaining activity at 3.75 µM ([2]; Well no.=117) of the same compound?
A: 96.6%

Q: How did the remaining activity at 1.25 µM ([1]; Well no.=245) turn out when `C[N+]1(C)[C@@H]2CC[C@H]1C[C@@H](OC(=O)C(CO)c1ccccc1)C2` (some centres unmarked) [Atropine methyl nitrate] was run?
A: 99.7%

Q: And the remaining activity at 3.75 µM ([2]; Well no.=245)?
A: 100%

Q: Which results are given for `CN1[C@@H]2CC[C@H]1C[C@@H](OC(=O)C(CO)c1ccccc1)C2` (some centres unmarked) [Atropine sulfate]?
A: remaining activity at 1.25 µM ([1]; Well no.=197): 99.5%; remaining activity at 1.25 µM ([1]; Well no.=3238): 102%; remaining activity at 3.75 µM ([2]; Well no.=3238): 102%

Q: `OCC1=C[C@@H](O)[C@@H]2C=CO[C@@H](O[C@@H]3O[C@H](CO)[C@@H](O)[C@H](O)[C@H]3O)[C@H]12` [Aucubin] was tested. Which remaining activity at 1.25 µM ([1]; Well no.=3162) did it give?
A: 99.3%

Q: And the remaining activity at 3.75 µM ([2]; Well no.=3162)?
A: 97.6%

Q: How did the remaining activity at 1.25 µM ([1]; Well no.=3511) turn out when `CC(C)=CCC/C(C)=C/COc1ccc2ccc(=O)oc2c1` [Auraptene] was run?
A: 101%

Q: And the remaining activity at 3.75 µM ([2]; Well no.=3511)?
A: 104%

Q: What does the source list for `O=C(O)C1=CC(=C(c2ccc(O)c(C(=O)O)c2)c2ccc(O)c(C(=O)O)c2)C=CC1=O` [Aurintricarboxylic acid]?
A: remaining activity at 1.25 µM ([1]; Well no.=249): 97.6%; remaining activity at 3.75 µM ([2]; Well no.=249): 109%

Q: With `CC[C@H](C)[C@@H]([C@@H](CC(=O)N1CCC[C@H]1[C@H](OC)[C@@H](C)C(=O)N[C@@H](Cc1ccccc1)C(=O)O)OC)N(C)C(=O)[C@@H](NC(=O)[C@H](C(C)C)N(C)C)C(C)C` [Auristatin F] (NMe2Val-V[Dil][Dolaproine]F-OH) as the compound, how does the remaining activity at 1.25 µM ([1]; Well no.=8602) read?
A: 106%

Q: What about the remaining activity at 3.75 µM ([2]; Well no.=8602) of the same compound?
A: 100%

Q: For `CCN1CCN(C(=O)Cc2ccc(Nc3ncc(F)c(Nc4ccc(C(=O)Nc5ccccc5Cl)cc4)n3)cc2)CC1` [Aurora A Inhibitor I], which remaining activity at 1.25 µM ([1]; Well no.=5241) is on record?
A: 95.1%

Q: What about the remaining activity at 3.75 µM ([2]; Well no.=5241) of the same compound?
A: 102%

Q: With `O=C(Nc1cccc(Nc2nccc(Nc3cccc(C(F)(F)F)c3)n2)c1)C1CC1` [Aurora Kinase Inhibitor III] as the compound, how does the remaining activity at 1.25 µM ([1]; Well no.=2326) read?
A: 105%

Q: And the remaining activity at 1.25 µM ([1]; Well no.=2659)?
A: 95.7%

Q: And the remaining activity at 3.75 µM ([2]; Well no.=2326)?
A: 102%

Q: What about the remaining activity at 3.75 µM ([2]; Well no.=2659) of the same compound?
A: 94%

Q: With `COc1cc2ncnc(Nc3ccc(NC(=O)c4ccccc4)cc3)c2cc1OC` [Aurora Kinase Inhibitor II] as the compound, how does the remaining activity at 1.25 µM ([1]; Well no.=2321) read?
A: 99.4%

Q: What about the remaining activity at 3.75 µM ([2]; Well no.=2321) of the same compound?
A: 99.9%

Q: For `Nc1nc(Nc2ccc(S(N)(=O)=O)cc2)nn1C(=O)c1c(F)cccc1F` [Aurora Kinase/Cdk Inhibitor], which remaining activity at 1.25 µM ([1]; Well no.=2356) is on record?
A: 98.5%

Q: And the remaining activity at 3.75 µM ([2]; Well no.=2356)?
A: 100%

Q: `CC1=CC(=O)C2=C(C)C[C@H](O)[C@@H]3[C@H](OC(=O)[C@H]3C)[C@@H]12` [Austricin] was tested. Which remaining activity at 1.25 µM ([1]; Well no.=3105) did it give?
A: 102%

Q: And the remaining activity at 3.75 µM ([2]; Well no.=3105)?
A: 105%

Q: With `Cc1nc2cccc(N)c2c(=O)n1C1CCC(=O)NC1=O` (centres unmarked) [Avadomide] as the compound, how does the remaining activity at 1.25 µM ([1]; Well no.=6870) read?
A: 99.6%

Q: And the remaining activity at 3.75 µM ([2]; Well no.=6870)?
A: 95.9%

Q: For `COc1ccc(CNc2nc(N3CCC[C@H]3CO)ncc2C(=O)NCc2ncccn2)cc1Cl` [Avanafil], which remaining activity at 1.25 µM ([1]; Well no.=5078) is on record?
A: 101%

Q: And the remaining activity at 3.75 µM ([2]; Well no.=5078)?
A: 100%

Q: For `CC(C)c1cc(C(C)C)c(CC(=O)NS(=O)(=O)Oc2c(C(C)C)cccc2C(C)C)c(C(C)C)c1` [Avasimibe], which remaining activity at 1.25 µM ([1]; Well no.=5705) is on record?
A: 99.6%

Q: What about the remaining activity at 1.25 µM ([1]; Well no.=8336) of the same compound?
A: 89.6%

Q: And the remaining activity at 3.75 µM ([2]; Well no.=5705)?
A: 96.6%

Q: What about the remaining activity at 3.75 µM ([2]; Well no.=8336) of the same compound?
A: 88%

Q: Which results are given for `COc1ccccc1Oc1c(NS(=O)(=O)c2ccc(C)cn2)nc(-c2ccncc2)nc1OC` [Avosentan]?
A: remaining activity at 1.25 µM ([1]; Well no.=7281): 102%; remaining activity at 3.75 µM ([2]; Well no.=7281): 100%

Q: What does the source list for `CNC(=O)c1ccccc1Sc1ccc2c(/C=C/c3ccccn3)n[nH]c2c1` [Axitinib]?
A: remaining activity at 1.25 µM ([1]; Well no.=2803): 101%; remaining activity at 3.75 µM ([2]; Well no.=2803): 99.1%

Q: Which results are given for `OC(c1ccccc1)(c1ccccc1)C1CCNCC1` [Azacyclonol]?
A: remaining activity at 1.25 µM ([1]; Well no.=5068): 97.2%; remaining activity at 3.75 µM ([2]; Well no.=5068): 103%

Q: For `O=C(CCCN1CCN(c2ccccn2)CC1)c1ccc(F)cc1` [Azaperone], which remaining activity at 1.25 µM ([1]; Well no.=2163) is on record?
A: 100%

Q: And the remaining activity at 1.25 µM ([1]; Well no.=6471)?
A: 102%

Q: What about the remaining activity at 3.75 µM ([2]; Well no.=2163) of the same compound?
A: 103%

Q: And the remaining activity at 3.75 µM ([2]; Well no.=6471)?
A: 101%

Q: Which results are given for `CN1C(=O)COc2c(C(=O)NC3CN4CCC3CC4)cc(Cl)cc21` (centres unmarked) [Azasetron (hydrochloride)]?
A: remaining activity at 1.25 µM ([1]; Well no.=8243): 96.2%; remaining activity at 3.75 µM ([2]; Well no.=8243): 96.1%

Q: Which remaining activity at 1.25 µM ([1]; Well no.=7617) does the source give for `CN1CCC(=C2c3ccccc3CCc3cccnc32)CC1` [Azatadine (dimaleate)] here?
A: 103%

Q: What about the remaining activity at 3.75 µM ([2]; Well no.=7617) of the same compound?
A: 105%
